Assays:
[1] = biological target: T1, Aldehyde dehydrogenase 1, mitochondrial (Saccharomyces cerevisiae, UniProt P22281); experiment: Inhibition of yeast aldehyde dehydrogenase by spectrophotometry following NADH formation at 340 nm
T1 sequence (P22281 whole entry): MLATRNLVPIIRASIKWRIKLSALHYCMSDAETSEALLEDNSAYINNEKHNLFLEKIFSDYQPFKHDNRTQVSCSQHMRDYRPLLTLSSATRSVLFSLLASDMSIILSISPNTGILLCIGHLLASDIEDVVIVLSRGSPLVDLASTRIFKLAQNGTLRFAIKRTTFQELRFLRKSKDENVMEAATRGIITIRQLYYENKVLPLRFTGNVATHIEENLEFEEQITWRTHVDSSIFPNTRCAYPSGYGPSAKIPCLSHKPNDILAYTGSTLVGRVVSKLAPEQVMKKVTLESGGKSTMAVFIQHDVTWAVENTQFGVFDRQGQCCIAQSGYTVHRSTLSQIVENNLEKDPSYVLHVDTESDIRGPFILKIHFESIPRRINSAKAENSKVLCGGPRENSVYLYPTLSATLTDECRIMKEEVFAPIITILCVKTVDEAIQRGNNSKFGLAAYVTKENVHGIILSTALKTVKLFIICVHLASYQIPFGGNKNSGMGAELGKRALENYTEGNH

[2] = biological target: T2, Aldehyde dehydrogenase 1, mitochondrial (Saccharomyces cerevisiae) (UniProt P22281); experiment: Inhibition of yeast aldehyde dehydrogenase at 0.5 mM by spectrophotometry following NADH formation at 340 nm
T2 sequence (whole entry): T1 sequence (P22281 whole entry)

| SMILES | IC50 [1] [µM] | inhibition [2] [%] |
| --- | --- | --- |
| CCCCCCCC/C=C/C(=O)CCCCCCC(=O)O | 280 |  |
| CCCCCCCC/C=C/C(=O)CCCCCCC(=O)OCC | 430 |  |

Next, values leading:

| IC50 [1] [µM] | inhibition [2] [%] | SMILES |
| --- | --- | --- |
|  | < 50 | CCCCCC(=O)/C=C/C=C/CCCCCCCC(=O)OCC(O)CO (stereo not given) |
|  | < 50 | CCCCC/C=C/C=C/C(=O)CCCCCCCC(=O)O |
| 170 |  | CCCCCC/C=C/C(=O)CCCCCCC(=O)OCC |

Reference: ChEMBL document CHEMBL1150143, “Aldehyde dehydrogenase inhibitors from the mushroom Clitocybe clavipes” (J Nat Prod, 2002)
